Assay results as given in US20250092084A1, “C7, C12, AND C16 SUBSTITUTED NEUROACTIVE STEROIDS AND THEIR METHODS OF USE” (Sage Therapeutics, Inc., priority 2016, published 2025).

Each compound was assayed against rat brain cortical membranes (GABA receptor complex, [35S]-TBPS binding) (assay: Steroid inhibition of [35S]-TBPS binding). Settings: 3 nM [35S]-TBPS, in the presence of 5 mM GABA.
Method: [^35S]-t-Butylbicyclophosphorothionate (TBPS) binding assays using rat brain cortical membranes in the presence of 5 mM GABA has been described (Gee et al, J Pharmacol. Exp. Ther. 1987, 241, 346-353; Hawkinson et al, Mol. Pharmacol. 1994, 46, 977-985; Lewin, A. H et al., Mol. Pharmacol. 1989, 35, 189-194).
Briefly, cortices are rapidly removed following decapitation of carbon dioxide-anesthetized Sprague-Dawley rats (200-250 g). The cortices are homogenized in 10 volumes of ice-cold 0.32 M sucrose using a glass/teflon homogenizer and centrifuged at 1500×g for 10 min at 4° C. The resultant supernatants are centrifuged at 10,000×g for 20 min at 4° C. to obtain the P2 pellets. The P2 pellets are resuspended in 200 mM NaCl/50 mM Na—K phosphate pH 7.4 buffer and centrifuged at 10,000×g for 10 min at 4° C. This washing procedure is repeated twice and the pellets are resuspended in 10 volumes of buffer. Aliquots ([…]) of the membrane suspensions are incubated with 3 nM [^35S]-TBPS and […] aliquots of test drug dissolved in dimethyl sulfoxide (DMSO) (final 0.5%) in the presence of 5 mM GABA. The incubation is brought to a final volume of 1.0 mL with buffer. Nonspecific binding is determined in the presence of […] and ranged from 15 to 25%. Following a 90 min incubation at room temp, the assays are terminated by filtration through glass fiber filters (Schleicher and Schuell No. 32) using a cell harvester (Brandel) and rinsed three times with ice-cold buffer. Filter bound radioactivity is measured by liquid scintillation spectrometry. Non-linear curve fitting of the overall data for each drug averaged for each concentration is done using Prism (GraphPad). […] The concentration of test compound producing 50% inhibition (IC50) of specific binding and the maximal extent of inhibition (Imax) are determined for the individual experiments with the same model used for the overall data and then the means±SEMs of the individual experiments are calculated.
Various compounds are or can be screened to determine their potential as modulators of [^35S]-TBPS binding in vitro. These assays are or can be performed in accordance with the above discussed procedures.
For C[C@@]1(O)CC[C@@]2(C)[C@@H](CC[C@@H]3[C@@H]2C[C@@H](O)[C@]2(C)[C@@H](C(=O)Cn4cc(C#N)cn4)CC[C@@H]32)C1 [Compound 47], the IC50 was at least 500 nM. Work on CO[C@H]1CC[C@H]2[C@@H]3CC[C@H]4C[C@](C)(O)CC[C@]4(C)[C@H]3C[C@@H](OC)[C@]12C [Compound 42] yielded an IC50 of 100 to 500 nM. COC[C@@H]1C[C@H]2C[C@](C)(O)CC[C@]2(C)[C@H]2CC[C@]3(C)[C@@H](C(=O)Cn4nnc5cc(OC)ccc54)CC[C@H]3[C@H]12 [Compound 20] was tested, and the IC50 was at least 500 nM. CO[C@@H]1C[C@H]2[C@@H](CC[C@@H]3C[C@](C)(O)CC[C@@H]32)[C@@H]2CC[C@H](C(C)=O)[C@@]12C [Compound 56] was tested, and the IC50 was 50 to 100 nM. C[C@@]1(O)CC[C@@]2(C)[C@@H](C[C@@H](O)[C@@H]3[C@@H]2CC[C@]2(C)[C@@H](C(=O)Cn4cc(C#N)cn4)CC[C@@H]32)C1 [Compound 26] was tested, and the IC50 was at least 500 nM. CO[C@H]1C[C@H]2[C@@H](CC[C@H]3C[C@](C)(O)CC[C@@]32C)[C@@H]2CC[C@H](C(C)=O)[C@@]12C [Compound 52] was tested, and the IC50 was at least 500 nM. Work on CC[C@@H]1C[C@H]2[C@@H]3CC[C@H]4C[C@](C)(O)CC[C@]4(C)[C@H]3CC[C@]2(C)[C@H]1C(=O)Cn1cc(C#N)cn1 [Compound 74] yielded an IC50 of at least 500 nM. With COc1ccc2nnn(CC(=O)[C@H]3[C@H](C)C[C@H]4[C@@H]5CC[C@H]6C[C@](C)(O)CC[C@]6(C)[C@H]5CC[C@@]43C)c2c1 [Compound 68] the IC50 was 10 to 50 nM. In the case of C[C@@]1(O)CC[C@@]2(C)[C@@H](CC[C@@H]3[C@@H]2C[C@@H](O)[C@]2(C)[C@@H](C(=O)Cn4cc5ccncc5n4)CC[C@@H]32)C1 [Compound 49], the IC50 is reported as 100 to 500 nM. For CO[C@H]1CC[C@H]2[C@@H]3[C@@H](C)C[C@H]4C[C@](C)(O)CC[C@]4(C)[C@H]3CC[C@]12C [Compound 4], the IC50 was at least 500 nM. For CO[C@H]1C[C@H]2[C@@H](CC[C@H]3C[C@](C)(O)CC[C@@]32C)[C@@H]2CC[C@H](C(=O)Cn3ncc4ccncc43)[C@@]12C [Compound 55], the IC50 was at least 500 nM. CO[C@H]1CC[C@H]2[C@@H]3[C@H](C)C[C@H]4C[C@](C)(O)CC[C@]4(C)[C@H]3CC[C@]12C [Compound 3] gave an IC50 of at least 500 nM. With CC(C)[C@@H]1C[C@H]2[C@@H]3CC[C@H]4C[C@](C)(O)CC[C@]4(C)[C@H]3CC[C@]2(C)[C@H]1C(=O)Cn1cc(C#N)cn1 [Compound 88] the IC50 was at least 500 nM. For CC(=O)[C@H]1[C@H](C(C)C)C[C@H]2[C@@H]3CC[C@H]4C[C@](C)(O)CC[C@]4(C)[C@H]3CC[C@@]21C [Compound 73], the IC50 was at least 500 nM. In the case of C[C@H]1C[C@H]2C[C@](C)(O)CC[C@]2(C)[C@H]2CC[C@]3(C)[C@@H](C(=O)Cn4cc5ccncc5n4)CC[C@H]3[C@H]12 [Compound 7], the IC50 is reported as at least 500 nM. Work on C[C@@H]1C[C@H]2C[C@](C)(O)CC[C@]2(C)[C@H]2CC[C@]3(C)[C@@H](C(=O)Cn4cc(C#N)cn4)CC[C@H]3[C@H]12 [Compound 38] yielded an IC50 of 100 to 500 nM. COC[C@H]1C[C@H]2C[C@](C)(O)CC[C@]2(C)[C@H]2CC[C@]3(C)[C@@H](C(C)=O)CC[C@H]3[C@H]12 [Compound 11] was tested, and the IC50 was at least 500 nM. In the case of COC[C@H]1C[C@H]2C[C@](C)(O)CC[C@]2(C)[C@H]2CC[C@]3(C)[C@@H](C(=O)Cn4cc5ccncc5n4)CC[C@H]3[C@H]12 [Compound 21], the IC50 is reported as at least 500 nM. With C[C@H]1C[C@H]2C[C@](C)(O)CC[C@]2(C)[C@H]2CC[C@]3(C)[C@@H](C#N)CC[C@H]3[C@H]12 [Compound 2] the IC50 was at least 500 nM. In the case of CO[C@@H]1C[C@H]2[C@@H](CC[C@H]3C[C@](C)(O)CC[C@@]32C)[C@@H]2CC[C@H](C(=O)Cn3cc(C#N)cn3)[C@@]12C [Compound 44], the IC50 is reported as 10 to 50 nM. Cc1nnnn1CC(=O)[C@H]1CC[C@H]2[C@@H]3[C@H](C)C[C@H]4C[C@](C)(O)CC[C@]4(C)[C@H]3CC[C@]12C [Compound 36] was tested, and the IC50 was at least 500 nM. CO[C@H]1C[C@H]2C[C@](C)(O)CC[C@]2(C)[C@H]2CC[C@]3(C)[C@@H](C(C)=O)CC[C@H]3[C@H]12 [Compound 30] gave an IC50 of at least 500 nM. With C[C@@H]1C[C@H]2[C@@H]3CC[C@H]4C[C@](C)(O)CC[C@]4(C)[C@H]3CC[C@]2(C)[C@H]1C(=O)Cn1cc(C#N)cn1 [Compound 66] the IC50 was 10 to 50 nM. With CC(C)[C@@H]1C[C@H]2[C@@H]3CC[C@H]4C[C@](C)(O)CC[C@]4(C)[C@H]3CC[C@]2(C)[C@H]1C(=O)Cn1cc2ccncc2n1 [Compound 76] the IC50 was at least 500 nM. CO[C@H]1C[C@H]2[C@@H](CC[C@H]3C[C@](C)(O)CC[C@@]32C)[C@@H]2CC[C@H](C(=O)Cn3cc4ccncc4n3)[C@@]12C [Compound 54] showed an IC50 of at least 500 nM. Work on C[C@@]1(O)CC[C@@]2(C)[C@@H](CC[C@@H]3[C@@H]2CC(=O)[C@]2(C)[C@@H](C(=O)Cn4cc(C#N)cn4)CC[C@@H]32)C1 [Compound 48] yielded an IC50 of at least 500 nM. CO[C@@H]1C[C@H]2[C@@H](CC[C@H]3C[C@](C)(O)CC[C@@]32C)[C@@H]2CC[C@H](C(=O)Cn3ncc4ccncc43)[C@@]12C [Compound 63] showed an IC50 of 100 to 500 nM. COc1ccc2nn(CC(=O)[C@H]3[C@H](C)C[C@H]4[C@@H]5CC[C@H]6C[C@](C)(O)CC[C@]6(C)[C@H]5CC[C@@]43C)nc2c1 [Compound 67] showed an IC50 of 10 to 50 nM. For C[C@@]1(O)CC[C@@]2(C)[C@@H](C[C@@H](O)[C@@H]3[C@@H]2CC[C@]2(C)[C@@H](C(=O)Cn4cc5ccncc5n4)CC[C@@H]32)C1 [Compound 27], the IC50 was at least 500 nM. For Cc1nnn(CC(=O)[C@H]2CC[C@H]3[C@@H]4[C@H](C)C[C@H]5C[C@](C)(O)CC[C@]5(C)[C@H]4CC[C@]23C)n1 [Compound 34], the IC50 was at least 500 nM. Work on CO[C@H]1C[C@H]2[C@@H](CC[C@H]3C[C@](C)(O)CC[C@@]32C)[C@@H]2CC[C@@H](C(C)=O)[C@@]12C [Compound 51] yielded an IC50 of at least 500 nM. For C[C@@H]1C[C@H]2C[C@](C)(O)CC[C@]2(C)[C@H]2CC[C@]3(C)[C@@H](C(=O)Cn4ncc5ccncc54)CC[C@H]3[C@H]12 [Compound 10], the IC50 was at least 500 nM. CO[C@@H]1C[C@H]2[C@@H](CC[C@H]3C[C@](C)(O)CC[C@@]32C)[C@@H]2CC[C@H](C(=O)Cn3cc4ccncc4n3)[C@@]12C [Compound 62] gave an IC50 of 10 to 50 nM. In the case of CC(C)[C@@H]1C[C@H]2[C@@H]3CC[C@H]4C[C@](C)(O)CC[C@]4(C)[C@H]3CC[C@]2(C)[C@H]1C(=O)Cn1ncc2ccncc21 [Compound 75], the IC50 is reported as at least 500 nM. In the case of CC(=O)[C@H]1CC[C@H]2[C@@H]3[C@H](C)C[C@H]4C[C@](C)(O)CC[C@]4(C)[C@H]3CC[C@]12C [Compound 5], the IC50 is reported as at least 500 nM. Compound COC[C@H]1C[C@H]2C[C@](C)(O)CC[C@]2(C)[C@H]2CC[C@]3(C)[C@@H](C(=O)Cn4nc5ccc(OC)cc5n4)CC[C@H]3[C@H]12 [Compound 15] has an IC50 of at least 500 nM. C[C@@]1(O)CC[C@@]2(C)[C@@H](CC[C@@H]3[C@@H]2C[C@@H](O)[C@]2(C)[C@@H](C#N)CC[C@@H]32)C1 [Compound 40] gave an IC50 of at least 500 nM. Compound COC[C@@H]1C[C@H]2C[C@](C)(O)CC[C@]2(C)[C@H]2CC[C@]3(C)[C@@H](C(=O)Cn4cc5ccncc5n4)CC[C@H]3[C@H]12 [Compound 24] has an IC50 of at least 500 nM. In the case of COc1ccc2c(c1)nnn2CC(=O)[C@H]1[C@H](C)C[C@H]2[C@@H]3CC[C@H]4C[C@](C)(O)CC[C@]4(C)[C@H]3CC[C@@]21C [Compound 69], the IC50 is reported as 10 to 50 nM. Work on COC[C@@H]1C[C@H]2C[C@](C)(O)CC[C@]2(C)[C@H]2CC[C@]3(C)[C@@H](C(=O)Cn4nnc5ccc(OC)cc54)CC[C@H]3[C@H]12 [Compound 19] yielded an IC50 of at least 500 nM. With CC[C@@H]1C[C@H]2[C@@H]3CC[C@H]4C[C@](C)(O)CC[C@]4(C)[C@H]3CC[C@]2(C)[C@H]1C(C)=O [Compound 65] the IC50 was at least 500 nM.
